Measured values: patent US9701707B2, “Methods of synthesizing substituted purine compounds” (Epizyme, Inc., priority 2013, dated 2017)

Legend:
Format in all cases: physicochemical
[1] = Dynamic vapor sorption (DVS) hygroscopicity; details: between 0% and 95% RH, 25° C.
Method: Form A may be observed EP-1. […] (peak temperature) which is accompanied by 5.9 wt % weight loss up to ˜150° C. in the TGA curve (FIG. 3). […] Form A is hygroscopic as indicated by water adsorption of 5.8 wt % at 80% RH measured by dynamic vapor sorption (DVS) (FIG. 4). A solid is considered moderately hygroscopic when water uptake at 25° C./80% RH is between 2-15 wt % based on criteria of European Pharmacopeia.
Form B of EP-1 trihydrate (x is 3) is a trihydrate as confirmed by single crystal analysis. The experimental XRPD pattern of Form B matches well with the simulated one from single crystal data (FIG. 6). This was also confirmed by DSC and TGA data (FIG. 7 and FIG. 8, respectively). DSC data indicates Form B dehydrates at ˜132° C. […] Form B is slightly hygroscopic as evidenced by a weight change of ˜0.3% between 0% and 95% RH (FIG. 9), (data collection was programmed from 95% RH-0% RH-95% RH at a step size of 10% RH at 25° C.).

[2] = Equilibrium solubility in organic solvents; details: RT; for Remaining Solid: XRPD; for solubility at 24 h: organic solvent or mixture, thermodynamic from solid
Method: Approximately 10 mg of Form B was weighed into a 1-ml glass vial followed by addition of 0.5 ml relevant media. Each sample was continuously stirred using a magnetic stir bar at 25° C. for 24 h. The suspension was then filtered using a nylon membrane with a pore diameter of 0.22 μm. The filtrates were diluted for HPLC analysis and final pH was measured. The solid residue of each sample was collected for XRPD analysis. The solubility of Form B was also determined in commonly used organic solvents (diluents or HPLC mobile phase). The solubility data summarized in Table 10 indicates Form B is quite soluble in MeOH, EtOH, and IPA.

[3] = Solution stability in pH buffers
Method: 0.1 mg/ml solutions of Form B were prepared in five buffers, including 0.01N HCl (pH 2), 50 mM sodium citrate (pH 4), 50 mM sodium citrate (pH 6), 50 mM sodium phosphate (pH 8), and 50 mM sodium carbonate (pH 10). Methanol was added as a co-solvent to dissolve Form B in buffers (i.e., 10% (v/v) in pH 2, 4, and 6 buffers, 20% (v/v) in pH 8 buffer, and 30% (v/v) in pH 10 buffer). Each buffer solution containing Form B was stored at 3 different temperatures: 25° C., 37° C., and 50° C. Aliquots were taken for HPLC analysis after 1 day and 7 days. pH values were also measured before and after the stability experiments.
Preparation of pH Buffers • pH 2: 0.01N HCl solution. Dilute 1 ml of 1 N HCl with H2O up to a total volume of 100 ml. Measure the pH and precisely adjust to pH=2.00 using a few microliters of 1N HCl or 1N NaOH. • pH 4: 50 mM Na citrate buffer. Prepare a 50 mM citric acid solution by diluting 10 ml of 1N citric acid with H2O up to a total volume of 200 ml. Slowly add solid NaOH under stirring to increase the pH to 3.8-4.0 and use a few microliters of 1N NaOH for final adjustment to pH 4.00. • pH 6: 50 mM Na citrate buffer. Use the same procedure as the pH 4 buffer and adjust to pH=6.00 • pH 8: 50 mM Na phosphate buffer. Prepare a 50 mM NaH2PO4 solution by dissolving 6.00 g NaH2PO4 in 1 L of H2O and a 50 mM Na2HPO4 solution by dissolving 7.10 g in 1 L of H2O. Mix 10 ml of the NaH2PO4 solution with 140 ml of the Na2HPO4 solution in a beaker. Adjust to pH 8.00 by addition of small amounts of 50 mM NaH2PO4 or Na2HPO4 solution. • pH 10: 50 mM Na carbonate buffer. Prepare a 50 mM carbonate solution by dissolving 840 mg of sodium bicarbonate (NaHCO3) in about 180 ml of H2O. Slowly adjust the pH to 10.0±0.1 by addition of 1N NaOH. Add water to reach the total volume of 200 ml and adjust to pH 10.00 with 1N NaOH.

[4] = pH 2, 25° C., 24 h, measured pH 2.1
[5] = pH 2, 25° C., 7 days, measured pH 2.1
[6] = pH 2, 37° C., 24 h, measured pH 2.1
[7] = pH 2, 37° C., 7 days, measured pH 2.1
[8] = pH 2, 50° C., 24 h, measured pH 2.1
[9] = pH 2, 50° C., 7 days, measured pH 2.1
[10] = pH 4, 25° C., 24 h, measured pH 4.2
[11] = pH 4, 25° C., 7 days, measured pH 4.2
[12] = pH 4, 37° C., 24 h, measured pH 4.1
[13] = pH 4, 37° C., 7 days, measured pH 4.1
[14] = pH 4, 50° C., 24 h, measured pH 4.1
[15] = pH 4, 50° C., 7 days, measured pH 4.2
[16] = pH 6, 25° C., 24 h, measured pH 6.2
[17] = pH 6, 25° C., 7 days, measured pH 6.2
[18] = pH 6, 37° C., 24 h, measured pH 6.2
[19] = pH 6, 37° C., 7 days, measured pH 6.3
[20] = pH 6, 50° C., 24 h, measured pH 6.2
[21] = pH 6, 50° C., 7 days, measured pH 6.2
[22] = pH 8, 25° C., 24 h, measured pH 8.2
[23] = pH 8, 25° C., 7 days, measured pH 8.2
[24] = pH 8, 37° C., 24 h, measured pH 8.2
[25] = pH 8, 37° C., 7 days, measured pH 8.3
[26] = pH 8, 50° C., 24 h, measured pH 8.3
[27] = pH 8, 50° C., 7 days, measured pH 8.3
[28] = pH 10, 25° C., 24 h, measured pH 10.9
[29] = pH 10, 25° C., 7 days, measured pH 10.9
[30] = pH 10, 37° C., 24 h, measured pH 10.9
[31] = pH 10, 37° C., 7 days, measured pH 10.9
[32] = pH 10, 50° C., 24 h, measured pH 11.0
[33] = pH 10, 50° C., 7 days, measured pH 10.9

Structure (SMILES): CC(C)N(C[C@H]1O[C@@H](n2cnc3c(N)ncnc32)[C@H](O)[C@@H]1O)[C@H]1C[C@@H](CCc2nc3cc(C(C)(C)C)ccc3[nH]2)C1 [Form B, (2R,3R,4S,5R)-2-(6-amino-9H-purin-9-yl)-5-((((1r,3S)-3-(2-(5-(tert-butyl)-1H-benzo[d]imidazol-2-yl)ethyl)cyclobutyl)(isopropyl)amino)methyl)tetrahydrofuran-3,4-diol trihydrate]
- weight change [1]: ~0.3%
- Remaining Solid ([2]; Acetone): Form B
- Remaining Solid ([2]; Acetonitrile): Form B
- solubility at 24 h ([2]; Ethanol): > 87 mg/mL
- solubility at 24 h ([2]; Isopropanol): > 129 mg/mL
- solubility at 24 h ([2]; Methanol): > 200 mg/mL
- % area (100% − TRS%) [3, 4]: 98.7%
- % claim (Cs/Ci × 100%) [3, 4]: 97.1%
- % area (100% − TRS%) [3, 5]: 98.5%
- % claim (Cs/Ci × 100%) [3, 5]: 99.1%
- % area (100% − TRS%) [3, 6]: 98.7%
- % claim (Cs/Ci × 100%) [3, 6]: 96.8%
- % area (100% − TRS%) [3, 7]: 98.4%
- % claim (Cs/Ci × 100%) [3, 7]: 97.5%
- % area (100% − TRS%) [3, 8]: 98.3%
- % claim (Cs/Ci × 100%) [3, 8]: 97.0%
- % area (100% − TRS%) [3, 9]: 98.4%
- % claim (Cs/Ci × 100%) [3, 9]: 97.0%
- degradation in solution ([3]; pH 2 to 10 buffers, 25° C., 37° C., 50° C., up to 7 days): less than 5%
- % area (100% − TRS%) [3, 10]: 99.4%
- % claim (Cs/Ci × 100%) [3, 10]: 97.4%
- % area (100% − TRS%) [3, 11]: 99.6%
- % claim (Cs/Ci × 100%) [3, 11]: 100.2%
- % area (100% − TRS%) [3, 12]: 99.4%
- % claim (Cs/Ci × 100%) [3, 12]: 97.6%
- % area (100% − TRS%) [3, 13]: 99.5%
- % claim (Cs/Ci × 100%) [3, 13]: 99.0%
- % area (100% − TRS%) [3, 14]: 99.4%
- % claim (Cs/Ci × 100%) [3, 14]: 97.6%
- % area (100% − TRS%) [3, 15]: 99.5%
- % claim (Cs/Ci × 100%) [3, 15]: 98.7%
- % area (100% − TRS%) [3, 16]: 99.2%
- % claim (Cs/Ci × 100%) [3, 16]: 98.0%
- % area (100% − TRS%) [3, 17]: 99.5%
- % claim (Cs/Ci × 100%) [3, 17]: 100.0%
- % area (100% − TRS%) [3, 18]: 99.3%
- % claim (Cs/Ci × 100%) [3, 18]: 97.9%
- % area (100% − TRS%) [3, 19]: 99.4%
- % claim (Cs/Ci × 100%) [3, 19]: 99.0%
- % area (100% − TRS%) [3, 20]: 99.3%
- % claim (Cs/Ci × 100%) [3, 20]: 98.1%
- % area (100% − TRS%) [3, 21]: 99.5%
- % claim (Cs/Ci × 100%) [3, 21]: 98.9%
- % area (100% − TRS%) [3, 22]: 99.2%
- % claim (Cs/Ci × 100%) [3, 22]: 98.0%
- % area (100% − TRS%) [3, 23]: 99.5%
- % claim (Cs/Ci × 100%) [3, 23]: 99.8%
- % area (100% − TRS%) [3, 24]: 99.5%
- % claim (Cs/Ci × 100%) [3, 24]: 98.4%
- % area (100% − TRS%) [3, 25]: 99.5%
- % claim (Cs/Ci × 100%) [3, 25]: 99.3%
- % area (100% − TRS%) [3, 26]: 99.5%
- % claim (Cs/Ci × 100%) [3, 26]: 98.0%
- % area (100% − TRS%) [3, 27]: 99.5%
- % claim (Cs/Ci × 100%) [3, 27]: 98.8%
- % area (100% − TRS%) [3, 28]: 99.4%
- % claim (Cs/Ci × 100%) [3, 28]: 98.0%
- % area (100% − TRS%) [3, 29]: 99.4%
- % claim (Cs/Ci × 100%) [3, 29]: 99.7%
- % area (100% − TRS%) [3, 30]: 99.4%
- % claim (Cs/Ci × 100%) [3, 30]: 98.2%
- % area (100% − TRS%) [3, 31]: 99.4%
- % claim (Cs/Ci × 100%) [3, 31]: 99.0%
- % area (100% − TRS%) [3, 32]: 99.5%
- % claim (Cs/Ci × 100%) [3, 32]: 97.9%
- % area (100% − TRS%) [3, 33]: 99.4%
- % claim (Cs/Ci × 100%) [3, 33]: 98.9%
